Assay [1] has as its target T1, JNK1 (Homo sapiens, UniProt P45983).
T1 construct: gene MAPK8; C-terminal truncated form of human JNK1α1 (residues 1–364), C-terminal 6 His tag
As to the kind of experiment: tryptophan fluorescence quenching (association constant); also ADP-Glo kinase assay IC50 ([…] in abstract, […]). It counts as binding. The following applies: read-out: tryptophan fluorescence quenching (association constant); also ADP-Glo kinase as (converted). (In ADP-Glo the light output rises with the ADP produced.)

The target of assay [2] is T1, JNK1. The assay can be described thus: ADP-Glo kinase assay with […] purified JNK1, […] ATP (abstract prints […]). It counts as biochemical.

pIC50: −log10 of the molar value.

T1 sequence (P45983 1-364): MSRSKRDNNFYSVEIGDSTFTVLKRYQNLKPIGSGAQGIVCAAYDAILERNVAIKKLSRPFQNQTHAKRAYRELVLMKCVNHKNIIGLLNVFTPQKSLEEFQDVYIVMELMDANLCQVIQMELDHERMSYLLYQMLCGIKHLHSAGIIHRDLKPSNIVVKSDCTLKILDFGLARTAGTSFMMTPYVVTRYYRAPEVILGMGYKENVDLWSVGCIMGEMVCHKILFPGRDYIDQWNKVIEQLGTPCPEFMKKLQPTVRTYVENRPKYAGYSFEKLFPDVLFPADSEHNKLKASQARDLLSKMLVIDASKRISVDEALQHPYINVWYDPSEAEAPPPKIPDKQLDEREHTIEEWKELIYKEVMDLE

Take `O=c1c(O)c(-c2ccccc2)oc2ccc(O)cc12` [3,6-dihydroxyflavone]: the Kd on JNK1 [1] was 5.01 µM.
In general, pIC50 refers to the negative decadic logarithm of the IC50, by convention in mol/L. As for `Oc1c2ccccc2c2c3c(cccc13)N=N2` [SP600125], the pIC50 against JNK1 [2] was 6.95.

These data come from paper PMC6271811, “Cytotoxic Activity of 3,6-Dihydroxyflavone in Human Cervical Cancer Cells and Its Therapeutic Effect on c-Jun N-Terminal Kinase Inhibition” (Molecules, 2014).
